Laboratory results published in US20240208992A1, “MACROCYCLES AS CFTR MODULATORS” (Idorsia Pharmaceuticals Ltd, priority 2021, published 2024).

Target: human F508del-CFTR (Homo sapiens, UniProt P13569, DEL508-508)
Test: F508del-CFTR cell surface expression (corrector activity), DiscoveRx ß-galactosidase complementation chemiluminescence assay in recombinant U2OS cell line;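 note: U2OS cells co-expressing ProLink-tagged F508del-CFTR and a membrane-anchored enzyme acceptor, where more surface CFTR restores β-galactosidase activity measured by chemiluminescence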
Conditions: for EC50: EC50, F508del-CFTR cell surface expression; for Emax: U2OS
[1] = U2OS cells, 16h compound incubation, geomean values
[2] = in relation to Emax of corrector lumacaftor (=100%), arithmetic mean values
[3] = U2OS cell line, 16h compound incubation, geomean values
[4] = in relation to the Emax of the corrector lumacaftor (=100%), U2OS cell line, 16h compound incubation, arithmetic mean values
[5] = U2OS cells, 16h compound incubation, geomean of several measurements
[6] = in relation to the Emax of the corrector lumacaftor (=100%), U2OS cells, 16h compound incubation, arithmetic mean

Chain of human F508del-CFTR (P13569 with tags, fused parts or gaps DEL508-508): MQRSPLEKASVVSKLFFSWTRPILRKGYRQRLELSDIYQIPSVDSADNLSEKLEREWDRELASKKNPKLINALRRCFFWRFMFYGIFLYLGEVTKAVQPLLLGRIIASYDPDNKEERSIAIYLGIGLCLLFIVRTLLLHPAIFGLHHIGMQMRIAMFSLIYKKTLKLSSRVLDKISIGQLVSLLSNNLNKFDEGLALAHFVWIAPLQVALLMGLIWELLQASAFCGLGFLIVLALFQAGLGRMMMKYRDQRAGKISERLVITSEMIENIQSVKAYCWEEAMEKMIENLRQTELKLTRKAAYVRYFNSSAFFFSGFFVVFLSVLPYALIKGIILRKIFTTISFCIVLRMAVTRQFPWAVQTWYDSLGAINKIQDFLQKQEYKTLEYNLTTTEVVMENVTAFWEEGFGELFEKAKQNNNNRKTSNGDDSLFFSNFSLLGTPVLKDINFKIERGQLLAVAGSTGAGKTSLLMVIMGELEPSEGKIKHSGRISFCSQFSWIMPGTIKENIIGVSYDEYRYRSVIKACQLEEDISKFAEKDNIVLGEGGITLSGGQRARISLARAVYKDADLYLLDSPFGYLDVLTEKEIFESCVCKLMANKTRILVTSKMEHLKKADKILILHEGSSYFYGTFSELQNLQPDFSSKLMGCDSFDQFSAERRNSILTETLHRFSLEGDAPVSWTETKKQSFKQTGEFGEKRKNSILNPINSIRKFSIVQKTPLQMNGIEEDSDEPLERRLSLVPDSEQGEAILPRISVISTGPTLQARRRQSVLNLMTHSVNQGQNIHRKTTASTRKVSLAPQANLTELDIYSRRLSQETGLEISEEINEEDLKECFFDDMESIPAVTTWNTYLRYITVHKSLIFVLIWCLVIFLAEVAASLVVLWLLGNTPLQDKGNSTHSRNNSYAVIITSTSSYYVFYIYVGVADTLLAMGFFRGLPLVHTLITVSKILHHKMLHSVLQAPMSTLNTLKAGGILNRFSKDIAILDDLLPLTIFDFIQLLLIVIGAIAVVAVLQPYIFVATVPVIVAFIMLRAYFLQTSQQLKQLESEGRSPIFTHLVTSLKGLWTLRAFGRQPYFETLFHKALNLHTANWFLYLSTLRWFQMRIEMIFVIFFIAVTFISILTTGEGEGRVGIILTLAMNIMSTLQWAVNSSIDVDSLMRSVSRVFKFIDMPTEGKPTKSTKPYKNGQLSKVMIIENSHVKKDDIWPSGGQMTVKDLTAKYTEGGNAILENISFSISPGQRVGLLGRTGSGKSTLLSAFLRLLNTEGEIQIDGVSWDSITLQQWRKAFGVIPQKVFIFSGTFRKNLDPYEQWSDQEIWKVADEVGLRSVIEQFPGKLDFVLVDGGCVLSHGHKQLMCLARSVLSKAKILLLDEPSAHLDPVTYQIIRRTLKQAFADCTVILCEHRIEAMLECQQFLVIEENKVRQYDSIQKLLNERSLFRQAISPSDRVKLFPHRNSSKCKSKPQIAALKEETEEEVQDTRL

SMILES | EC50 [1] [nM] | Emax [2] [%] | EC50 [3] [nM] | Emax [4] [%] | further results
Cc1cc(CCNC(=O)[C@@H]2CC(=O)N(C)[C@@H](CC(C)C)C(=O)N(C)[C@H](CCOCc3ccccc3)C(=O)N[C@H](Cc3ccccc3)COc3cnc4ccccc4c3C(=O)N2)on1 [Example 578, (3S,7S,10R,13R)-13-benzyl-10-(2-(benzyloxy)ethyl)-7-isobutyl-6,9-dimethyl-N-(2-(3-methylisoxazol-5-yl)ethyl)-1,5,8,11-tetraoxo-1,2,3,4,5,6,7,8,9,10,11,12,13,14-tetradecahydro-[1]oxa[4,7,10,14]tetraazacycloheptadecino[17,16-c]quinoline-3-carboxamide] | 53 | 319 |  |  | 
Cc1cc(CCNC(=O)[C@@H]2CC(=O)N(C)[C@@H](CC(C)C)C(=O)N(C)[C@H](C(C)C)C(=O)N[C@H](Cc3ccccc3)COc3cnc4ccccc4c3C(=O)N2)on1 [Example 547, (3S,7S,10R,13R)-13-benzyl-7-isobutyl-10-isopropyl-6,9-dimethyl-N-(2-(3-methylisoxazol-5-yl)ethyl)-1,5,8,11-tetraoxo-1,2,3,4,5,6,7,8,9,10,11,12,13,14-tetradecahydro-[1]oxa[4,7,10,14]tetraazacycloheptadecino[17,16-c]quinoline-3-carboxamide] | 281 | 330 |  |  | 
Cc1cc(CCNC(=O)[C@@H]2CC(=O)N(C)[C@@H](CC(C)C)C(=O)N(C)C3(CC3)C(=O)N[C@H](Cc3ccccc3)COc3cnc4ccc(F)cc4c3C(=O)N2)on1 [Example 147, (3′S,7′S,13′R)-13′-benzyl-20′-fluoro-7′-isobutyl-6′,9′-dimethyl-N-(2-(3-methylisoxazol-5-yl)ethyl)-1′,5′,8′,11′-tetraoxo-2′,3′,4′,5′,6′,7′,8′,9′,11′,12′,13′,14′-dodecahydro-1′H-spiro[cyclopropane-1,10′-[1]oxa[4,7,10,14]tetraazacycloheptadecino[17,16-c]quinoline]-3′-carboxamide] |  |  | 270 | 339 | 
Cc1cc2c3c(ccc2cn1)OC[C@@H](Cc1ccccc1)NC(=O)[C@@H](CC(F)(F)F)N(C)C(=O)[C@H](CC(C)C)N(C)C(=O)C[C@@H](C(=O)NCCc1nc(C2CC2)no1)NC3=O [Example 951, (3S,7S,10R,13R)-13-benzyl-N-(2-(3-cyclopropyl-1,2,4-oxadiazol-5-yl)ethyl)-7-isobutyl-6,9,20-trimethyl-1,5,8,11-tetraoxo-10-(2,2,2-trifluoroethyl)-1,2,3,4,5,6,7,8,9,10,11,12,13,14-tetradecahydro-[1]oxa[4,7,10,14]tetraazacycloheptadecino[16,17-f]isoquinoline-3-carboxamide] |  |  |  |  | EC50 [5]: 165 nM; Emax [6]: 405%
CC(C)C[C@H]1C(=O)N2CCOC[C@@H]2C(=O)N[C@H](Cc2ccccc2)COc2ccc3ccccc3c2C(=O)N[C@H](C(=O)NCCc2noc(C3CC3)n2)CC(=O)N1C [Example 45, (4aR,7R,18S,22S)-7-benzyl-N-(2-(5-cyclopropyl-1,2,4-oxadiazol-3-yl)ethyl)-22-isobutyl-21-methyl-5,16,20,23-tetraoxo-1,2,4,4a,5,6,7,8,16,17,18,19,20,21,22,23-hexadecahydronaphtho[1,2-p][1,4]oxazino[3,4-f][1]oxa[4,7,10,14]tetraazacycloheptadecine-18-carboxamide] |  |  | 682 | 324 | 
COc1cccc(-c2noc(CCNC(=O)[C@@H]3CC(=O)N(C)[C@@H](CC(C)C)C(=O)N4CCOC[C@@H]4C(=O)N[C@H](Cc4ccccc4)COc4cnc5ccccc5c4C(=O)N3)n2)c1 [Example 130, (9S,13S,19aR,22R)-22-benzyl-13-isobutyl-N-(2-(3-(3-methoxyphenyl)-1,2,4-oxadiazol-5-yl)ethyl)-12-methyl-7,11,14,20-tetraoxo-7,8,9,10,11,12,13,14,16,17,19,19a,20,21,22,23-hexadecahydro-[1,4]oxazino[3′,4′:6,7][1]oxa[4,7,10,14]tetraazacycloheptadecino[17,16-c]quinoline-9-carboxamide] |  |  | 1000 | 264 | 
CC(C)C[C@H]1C(=O)N(C)CC(=O)N[C@H](Cc2ccccc2)COc2nc3ccccn3c2C(=O)N[C@H](C(=O)NCCc2ccc3c(c2)OCO3)CC(=O)N1C [Example 430, (3R,9S,13S)-N-(2-(benzo[d][1,3]dioxol-5-yl)ethyl)-3-benzyl-9-isobutyl-7,10-dimethyl-5,8,11,15-tetraoxo-2,3,4,5,6,7,8,9,10,11,12,13,14,15-tetradecahydropyrido[2′,11:2,3]imidazo[4,5-p][1]oxa[4,7,10,14]tetraazacycloheptadecine-13-carboxamide] | 964 | 194 |  |  | 
COc1cccc(CCNC(=O)[C@@H]2CC(=O)N(C)[C@@H](CC(C)C)C(=O)N3CCN(S(=O)(=O)c4cccc(OC(F)(F)F)c4)C[C@@H]3C(=O)N[C@H](Cc3ccccc3)COc3ccc4ccccc4c3C(=O)N2)c1 [Example 732, (4aR,7R,18S,22S)-7-benzyl-22-isobutyl-N-(3-methoxyphenethyl)-21-methyl-5,16,20,23-tetraoxo-3-((3-(trifluoromethoxy)phenyl)sulfonyl)-2,3,4,4a,5,6,7,8,16,17,18,19,20,21,22,23-hexadecahydro-1H-naphtho[1,2-p]pyrazino[2,1-f][1]oxa[4,7,10,14]tetraazacycloheptadecine-18-carboxamide] | 64 | 239 |  |  | 
[2H]C([2H])([2H])Oc1cccc(CCNC(=O)[C@@H]2CC(=O)N(C)[C@@H](CC(C)C)C(=O)N(CCC3CCCCC3)CC(=O)N[C@H](Cc3ccccc3)COc3cnc4c(F)cccc4c3C(=O)N2)c1 [Example 384, (3S,7S,13R)-13-benzyl-9-(2-cyclohexylethyl)-18-fluoro-7-isobutyl-N-(3-(methoxy-d3)phenethyl)-6-methyl-1,5,8,11-tetraoxo-1,2,3,4,5,6,7,8,9,10,11,12,13,14-tetradecahydro-[1]oxa[4,7,10,14]tetraazacycloheptadecino[17,16-c]quinoline-3-carboxamide] |  |  | 54 | 282 | 
COc1cccc(CCNC(=O)[C@@H]2CC(=O)N(C)[C@@H](CC(C)C)C(=O)N(C)C3(CC3)C(=O)N[C@H](Cc3ccccc3)COc3ncc4ccccc4c3C(=O)N2)c1 [Example 555, (3′S,7′S,13′R)-13′-benzyl-7′-isobutyl-N-(3-methoxyphenethyl)-6′,9′-dimethyl-1′,5′,8′,11′-tetraoxo-2′,3′,4′,5′,6′,7′,8′,9′,11′,12′,13′,14′-dodecahydro-1′H-spiro[cyclopropane-1,10′-[1]oxa[4,7,10,14]tetraazacycloheptadecino[17,16-c]isoquinoline]-3′-carboxamide] | 219 | 309 |  |  | 
COc1cccc(CCNC(=O)[C@@H]2CC(=O)N(C)[C@@H](CC(C)C)C(=O)N3CCN(C(C)C)C[C@@H]3C(=O)N[C@H](Cc3ccccc3)COc3cccc(OC)c3C(=O)N2)c1 [Example 611, (7S,11S,20R,22aR)-20-benzyl-7-isobutyl-2-isopropyl-14-methoxy-N-(3-methoxyphenethyl)-8-methyl-6,9,13,22-tetraoxo-1,3,4,6,7,8,9,10,11,12,13,19,20,21,22,22a-hexadecahydro-2H-benzo[p]pyrazino[2,1-f][1]oxa[4,7,10,14]tetraazacycloheptadecine-11-carboxamide] | 344 | 251 |  |  | 
CC(C)C[C@H]1C(=O)N2CC[C@H](c3ccccc3)C[C@H]2C(=O)N[C@H](Cc2ccccc2)COc2cnc3ccccc3c2C(=O)N[C@H](C(=O)NCCc2cc(C3CC3)no2)CC(=O)N1C (single isomer, unassigned) [Example 674] | 262 | 133 |  |  | 
Cc1cnc(CCNC(=O)[C@@H]2CC(=O)N(C)[C@@H](CC(C)C)C(=O)N3CCCC[C@@H]3C(=O)N[C@H](Cc3ccccc3)COc3ccc4ncn(C)c4c3C(=O)N2)s1 (racemic) [Example 24, (8RS,12S,18aR,21R)-21-benzyl-12-isobutyl-5,11-dimethyl-N-(2-(5-methylthiazol-2-yl)ethyl)-6,10,13,19-tetraoxo-6,7,8,9,10,11,12,13,16,17,18,18a,19,20,21,22-hexadecahydro-5H,15H-imidazo[4′,5′:5,6]benzo[1,2-p]pyrido[2,1-f][1]oxa[4,7,10,14]tetraazacycloheptadecine-8-carboxamide] |  |  | 823 | 131 | 
COc1cccc(CCNC(=O)[C@@H]2CC(=O)N(C)[C@@H](CC(C)C)C(=O)N(CCC3CCCCC3)CC(=O)N[C@H](Cc3ccccc3)COc3ccc(Cl)cc3C(=O)N2)c1 [Example 254, (3R,9S,13S)-3-benzyl-17-chloro-7-(2-cyclohexylethyl)-9-isobutyl-N-(3-methoxyphenethyl)-10-methyl-5,8,11,15-tetraoxo-2,3,4,5,6,7,8,9,10,11,12,13,14,15-tetradecahydrobenzo[p][1]oxa[4,7,10,14]tetraazacycloheptadecine-13-carboxamide] |  |  | 102 | 152 | 
COc1nccc2c1C(=O)N[C@H](C(=O)NCCc1cc(C)no1)CC(=O)N(C)[C@@H](CC(C)C)C(=O)N(C)[C@H](CCOc1ccccc1)C(=O)N[C@H](Cc1ccccc1)CO2 [Example 855, (3R,6R,9S,13S)-3-benzyl-9-isobutyl-16-methoxy-7,10-dimethyl-N-(2-(3-methylisoxazol-5-yl)ethyl)-5,8,11,15-tetraoxo-6-(2-phenoxyethyl)-2,3,4,5,6,7,8,9,10,11,12,13,14,15-tetradecahydropyrido[3,4-p][1]oxa[4,7,10,14]tetraazacycloheptadecine-13-carboxamide] |  |  |  |  | EC50 [5]: 80 nM; Emax [6]: 341%
